Source: the NIST ThermoML archive (doi:10.1021/je400487e)
± gives the expanded uncertainty stated by the source.

Settings: 298.15 K; 101.33 kPa; Liquid; Vibrating tube method

SMILES	mass density [kg/m3]
CC(C)CC(C)(C)C [2,2,4-trimethylpentane]	687.77 ± 0.26
CC(=O)N(C)C [N,N-dimethylethanamide]	936.88 ± 0.26
C1CCCCCCC1 [cyclooctane]	831.87 ± 0.26
CCCCCCCCCC [decane]	726.43 ± 0.26
CCCCCCCCCCCC [dodecane]	741.54 ± 0.26
CC1CCCCC1 [methylcyclohexane]	764.86 ± 0.26
CCCCCCCCCCCCCC [tetradecane]	759.27 ± 0.26
